Test results taken from patent US20190054054A1, “Methods reducing or preventing oxidation of high density lipoprotein (HDL)” (Amarin Pharmaceuticals Ireland Limited, priority 2017, published 2019).

Columns and labels:
[1] = system: rat renal glomerular endothelial cells; experiment: NO and ONOO^− release ex vivo from rat glomerular endothelial cells exposed to oxLDL and high glucose (Example 13); type: cell-based; conditions: oxLDL 11 mg/dL and glucose 300 mg/dL; treatment 1 hr at 10.0 μM; versus vehicle
Description: Healthy male Wistar Kyoto (WKY) rats, aged 7-9 weeks and weighing 250±20 g, were obtained from inbred colonies (National Institutes of Health, Bethesda, Md.). Animals were housed in a controlled environment that provided food and water ad libitum prior to the study. […] Animals were sacrificed and tissue samples obtained immediately for experimentation. All procedures were conducted in accordance with standard Institutional Animal Care and Use Committee guidelines and conformed to the Guide for the Care and Use of Laboratory Animals published by the US National Institutes of Health.
EPA and DHA were purchased from Sigma-Aldrich (St. Louis, Mo.) and solubilized in ethanol to 1.0 mM under nitrogen atmosphere. […] The calcium ionophore (Cal), A23187, was purchased from Sigma-Aldrich and prepared in aqueous buffer to 1.0 mM. All test compounds were further diluted in ethanol or aqueous buffer as needed.
Venous blood from healthy normolipidemic volunteers was collected into Na-EDTA (1 mg/mL blood) vacuum tubes after a 12-hour fast. […] The LDL fraction was dialyzed for 96 hours against PBS containing 0.3 mM EDTA and stored at 4° C. until experimental use.
LDL was oxidized according to the methods of Huber et al. 16 Briefly, the purified LDL fraction was dialyzed against Tris/NaCl Buffer (50 mM Tris in 0.15 M NaCl, pH 8.0) to remove EDTA. Additional buffer was added to adjust the protein concentration to 30 mg/mL. LDL oxidation was initiated with 20 μM CuSO4 and monitored spectrophotometrically (234 nm) over a period of 24 hours until complete. The oxLDL was then dialyzed at 4° C. with 4 L Tris buffer, filtered with a 0.22 µm filter, and stored under nitrogen at 4° C.
Immediately after sacrificing the rats, kidneys were removed, cut into […] sections and transferred to a separate organ chamber containing Dulbecco's phosphate buffered saline ([…]) and […] glucose at pH 7.4.
Concurrent measurements of NO and ONOO^− were performed on intact glomerular (cortical zone) endothelial cells using tandem electrochemical nanosensors, as previously described (FIG. 45).
The NO/ONOO^− nanosensor was positioned near the surface of the endothelial cells using a computer-controlled M3301 micromanipulator (x-y-z resolution of 0.2 μm) and microscope (both from World Precision Instruments, Berlin, Germany) fitted with a CD camera. Each analyte was measured from amperograms and standard calibration curves collected under maximum current. […] After establishing a background current, maximal NO and ONOO^− release was induced by injecting Cal into the organ chamber using a nanoinjector (World Precision Instruments, Berlin Germany). Changes in current (proportional to the molar concentrations of NO or ONOO^− released) were monitored continuously immediately following Cal stimulation.
Data are presented as mean+standard deviation (SD) for (N) separate samples or experiments. Differences between groups were analyzed using the unpaired, two-tailed Student's t-test (for comparisons between only two groups) or ANOVA followed by Student-Newman-Keuls multiple comparisons post hoc analysis (for comparisons between three or more groups). Only differences with probability values less than 0.05 were considered significant.

human sdLDL = experiment: Copper-induced sdLDL oxidation, TBARS (Example 7); type: biochemical
Description: (§1) An experiment to study the antioxidant effect of EPA in LDL and small dense […] performed. […] Fenofibrate, gemfibrozil, and niacin were purchased from Sigma-Aldrich. […] Vitamin E was also incubated with sample aliquots as a positive control.

human LDL = experiment: Copper-induced oxidation of unfractionated LDL, TBARS (Example 7); type: biochemical
Description: as §1

[2] = Glucose-induced membrane lipid peroxidation (LOOH, CHOD-iodide assay) in DLPC/cholesterol vesicles (Examples 4 and 5); type: biochemical; conditions: each at 1.0 μM; glucose 200 mg/dL; 96 hours
Description: Vitamin E (α-tocopherol) was also purchased from Sigma-Aldrich and prepared in ethanol at 1.0 mM (e=[…] at 294 nm) just prior to experimental use. […] All test compounds were further diluted in ethanol or aqueous buffer as needed. Glucose was prepared in saline buffer (0.5 mM HEPES, 154 mM NaCl, pH 7.3) at 11.0 mM (200 mg/dL). CHOD-iodide color reagent (stock) was prepared, with slight modification, as described by from El-Saadani et al. (J. […] Samples were shell-dried under nitrogen gas and placed under vacuum for 1 h to remove residual solvent. […] Lipid suspensions were then vortexed for 3 min at ambient temperature to form MLVs. All MLV samples were subjected to time-dependent autoxidation by incubating at 37° C. in an uncovered, shaking water bath. This method allows lipid peroxidation to occur gradually without requiring the use of exogenous initiators. Small aliquots (5-100 μL) of each sample were removed, immediately following MLV preparation (0 hour) and after exposing samples to oxidative conditions for 72 or 96 hour, and combined with 1.0 mL of activated CHOD-iodide color reagent. Aliquot volume was reduced with each successive time point to ensure that spectrophotometric readings were within the optimal adsorption range. Test samples were covered and incubated in darkness at room temperature for at least 4 hr. Sample absorbances were then measured against a CHOD blank at 365 nm using a Beckman DU-640 spectrophotometer. The CHOD colorimetric assay is based on the oxidation of iodide (I^−) by lipid hydroperoxide (LOOH) to form triiodide (I3^−), the quantity of which is directly proportional to the amount of LOOH present in the lipid sample. The molar absorptivity (ε) of I3^− is 2.46×10^4 M^−1 cm^−1 at 365 nm. An experiment was conducted to compare the ability of EPA to prevent lipid hydroperoxide formation in model membranes treated with glucose to two other 20-carbon fatty acids: eicosanoic acid (“EA,” also referred to as arachidic acid, C20:0) and eicosatrienoic acid (“ETE,” C20:3, n-3). All MLV samples were subjected to time-dependent autoxidation by incubating at 37° C. in an uncovered, shaking water bath. This method allows lipid peroxidation to occur gradually without requiring the use of exogenous initiators. Small aliquots (5-100 μL) of each sample were removed, immediately following MLV preparation (0 hr) and after exposing samples to oxidative conditions for 72 or 96 hr, and combined with 1.0 mL of activated CHOD-iodide color reagent. Aliquot volume was reduced with each successive time point to ensure that spectrophotometric readings were within the optimal adsorption range. Test samples were covered and incubated in darkness at room temperature for at least 4 hr. Sample absorbances were then measured against a CHOD blank at 365 nm using a Beckman DU-640 spectrophotometer. The CHOD colorimetric assay is based on the oxidation of iodide (I^−) by lipid hydroperoxide (LOOH) to form triiodide (I3^−), the quantity of which is directly proportional to the amount of LOOH present in the lipid sample. The molar absorptivity (ε) of I3^− is 2.46×10^4 M^−1 cm^−1 at 365 nm.

[3] = 80 mg for 16 weeks; 2,341 patients; cited from earlier work
[4] = 10 mg, administered for 12 weeks; cited from earlier work
HMG-CoA reductase = target: T1, HMG-CoA reductase (Homo sapiens, UniProt P04035); conditions: metabolized by hepatic cytochrome P450; cited from earlier work
T1 sequence (P04035 1-888): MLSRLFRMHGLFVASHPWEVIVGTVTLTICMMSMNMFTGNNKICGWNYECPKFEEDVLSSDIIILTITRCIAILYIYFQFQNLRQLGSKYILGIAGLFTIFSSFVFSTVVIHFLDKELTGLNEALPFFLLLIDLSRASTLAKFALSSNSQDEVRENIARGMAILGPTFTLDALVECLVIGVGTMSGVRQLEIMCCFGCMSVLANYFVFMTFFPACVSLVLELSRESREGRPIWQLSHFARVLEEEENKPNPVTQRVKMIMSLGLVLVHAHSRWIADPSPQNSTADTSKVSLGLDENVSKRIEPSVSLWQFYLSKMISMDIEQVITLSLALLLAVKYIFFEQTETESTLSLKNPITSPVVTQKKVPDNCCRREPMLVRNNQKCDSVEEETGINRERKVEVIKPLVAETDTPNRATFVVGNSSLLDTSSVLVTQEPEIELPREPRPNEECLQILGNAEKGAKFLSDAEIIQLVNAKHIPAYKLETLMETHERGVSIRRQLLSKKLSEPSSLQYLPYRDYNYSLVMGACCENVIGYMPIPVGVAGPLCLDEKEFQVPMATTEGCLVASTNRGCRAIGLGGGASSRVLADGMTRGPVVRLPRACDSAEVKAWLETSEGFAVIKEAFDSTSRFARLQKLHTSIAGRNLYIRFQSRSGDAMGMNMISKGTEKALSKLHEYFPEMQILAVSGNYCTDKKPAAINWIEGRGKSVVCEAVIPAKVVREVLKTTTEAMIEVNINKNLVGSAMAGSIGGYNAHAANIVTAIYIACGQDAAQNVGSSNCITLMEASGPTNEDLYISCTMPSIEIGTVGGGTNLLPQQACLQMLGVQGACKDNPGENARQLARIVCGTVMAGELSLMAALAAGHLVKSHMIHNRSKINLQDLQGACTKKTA

Structure (SMILES) | increase in NO release [1] [%] | reduction of ONOO^− release [1] [%] | inhibition of sdLDL oxidation as compared to vehicle (human sdLDL; 1.0 μM (each agent), 1 hr) [%] | inhibition of sdLDL oxidation as compared to vehicle (human sdLDL; ATM 0.5 μM, alone or in combination with EPA 1.0 μM, 1 hr) [%] | inhibition of sdLDL oxidation (human sdLDL; ATM at the highest dose, 1 hr) [%] | effect on unfractionated LDL oxidation, dose dependence (human LDL; 1 hour) | antioxidant effect, separate treatments [2] | levels of oxidized lipids associated with all apoB100-containing lipid particles [3] | antioxidant activity, separately (human sdLDL; 10.0 μM, sdLDL) | inhibition of sdLDL oxidation as compared to vehicle (human sdLDL; each agent at 10.0 μM, 1 hour (FIG. 17)) [%] | antioxidant activity, separately (human LDL; 10.0 μM, unfractionated LDL) | circulating levels of chlorotyrosine, nitrotyrosine, and dityrosine [4] | share of circulating HMG-CoA reductase inhibitory activity accounted for by the active metabolites (HMG-CoA reductase)
CC(C)c1c(C(=O)Nc2ccccc2O)c(-c2ccccc2)c(-c2ccc(F)cc2)n1CC[C@@H](O)C[C@@H](O)CC(=O)O [ATM, Atorvastatin ortho-(o-) hydroxy (active) metabolite] | 205 | 25 | 18±5 | 5±5 | 90±2 | significant and dose-dependent inhibition of unfractionated LDL oxidation beginning at 1.0 μM | separate and potent antioxidant effects | – | – | – | – | – | –
CC(C)c1c(C(=O)Nc2ccccc2)c(-c2ccccc2)c(-c2ccc(F)cc2)n1CC[C@@H](O)C[C@@H](O)CC(=O)O [atorvastatin] | – | – | – | – | – | – | – | significant reduction in levels of oxidized lipids | did not have any significant antioxidant activity | 0.1±7 | did not have any significant antioxidant activity | significantly reduce circulating levels of chlorotyrosine, nitrotyrosine, and dityrosine | approximately 70%
